Experimental data published in ChEMBL document CHEMBL3885881, “DrugMatrix”.

Species on record: Rattus norvegicus
Experiment: DrugMatrix - Regimen: Daily Repeat
Format: toxicity, organism-based, Sprague-Dawley
Set-up: regimen Daily Repeat, gender Male, age 6-8 weeks
Details: in vivo, po, route oral GAVAGE, […]; for ABSOLUTE BASOPHIL / BASOPHIL / NUCLEATED RED BLOOD CELLS / ABSOLUTE EOSINOPHIL / ABSOLUTE LYMPHOCYTE / ABSOLUTE MONOCYTE / ABSOLUTE SEGMENTED NEUTROPHIL / EOSINOPHIL / ERYTHROCYTE COUNT / HEMATOCRIT / HEMOGLOBIN / LEUKOCYTE COUNT / LYMPHOCYTE / MEAN CORPUSCULAR HEMOGLOBIN / MEAN CORPUSCULAR VOLUME / MONOCYTE / NEUTROPHIL / PLATELET COUNT: tissue Blood; for ALANINE AMINOTRANSFERASE / ALBUMIN / ALKALINE PHOSPHATASE / ASPARTATE AMINOTRANSFERASE / BLOOD UREA NITROGEN / CARBON DIOXIDE / CHLORIDE / CHOLESTEROL / CREATINE PHOSPHOKINASE / CREATININE / GLUCOSE / LACTATE DEHYDROGENASE / LIPASE / PHOSPHORUS / SODIUM / TOTAL BILIRUBIN / TOTAL PROTEIN / URIC ACID: tissue Plasma
[1] = 0 mg/kg, 72 h, dose level Control, time 3 day
[2] = 0 mg/kg, 120 h, dose level Control, time 5 day
[3] = 25 mg/kg, 72 h, dose level Low, time 3 day
[4] = 25 mg/kg, 120 h, dose level Low, time 5 day

## CC(=O)N1CCN(c2ccc(OCC3COC(Cn4ccnc4)(c4ccc(Cl)cc4Cl)O3)cc2)CC1 (configuration not stated) [KETOCONAZOLE]
[1]
  ABSOLUTE BASOPHIL: 0 CELLS/uL
  BASOPHIL: 0%
  NUCLEATED RED BLOOD CELLS: 0 /100WBC
[2]
  ABSOLUTE BASOPHIL: 0 CELLS/uL
  BASOPHIL: 0%
[3]
  ABSOLUTE BASOPHIL: 0 CELLS/uL
  ABSOLUTE EOSINOPHIL: 0 CELLS/uL
  ABSOLUTE LYMPHOCYTE: 6183 CELLS/uL
  ABSOLUTE MONOCYTE: 155.33 CELLS/uL
  ABSOLUTE SEGMENTED NEUTROPHIL: 695 CELLS/uL
  BASOPHIL: 0%
  EOSINOPHIL: 0%
  ERYTHROCYTE COUNT: 5.13 x10E6/uL
  HEMATOCRIT: 33.13%
  HEMOGLOBIN: 12.97 G/DL
  LEUKOCYTE COUNT: 7.03 x10E3/uL
  LYMPHOCYTE: 87.67%
  MEAN CORPUSCULAR HEMOGLOBIN: 25.3 pg
  MEAN CORPUSCULAR VOLUME: 64.73 fL
  MONOCYTE: 2%
  NEUTROPHIL: 10.33%
  NUCLEATED RED BLOOD CELLS: 0 /100WBC
  PLATELET COUNT: 1118 x10E3/uL
  ALANINE AMINOTRANSFERASE: 90.33 u/L
  ALBUMIN: 3.83 G/DL
  ALKALINE PHOSPHATASE: 423.67 u/L
  ASPARTATE AMINOTRANSFERASE: 89.33 u/L
  BLOOD UREA NITROGEN: 12.67 mg/dL
  CARBON DIOXIDE: 39 mmol/L
  CHLORIDE: 95.33 MEQ/L
  CHOLESTEROL: 74 mg/dL
  CREATINE PHOSPHOKINASE: 308.67 u/L
  CREATININE: 0.15 mg/dL
  GLUCOSE: 163.33 mg/dL
  LACTATE DEHYDROGENASE: 69.33 u/L
  LIPASE: 10 u/L
  PHOSPHORUS: 9.63 mg/dL
  SODIUM: 136.67 MEQ/L
  TOTAL BILIRUBIN: 0.13 mg/dL
  TOTAL PROTEIN: 5.53 G/DL
  URIC ACID: 0.43 mg/dL
[4]
  ABSOLUTE BASOPHIL: 0 CELLS/uL
  ABSOLUTE EOSINOPHIL: 0 CELLS/uL
  ABSOLUTE LYMPHOCYTE: 8189 CELLS/uL
  ABSOLUTE MONOCYTE: 181 CELLS/uL
  ABSOLUTE SEGMENTED NEUTROPHIL: 1063.33 CELLS/uL
  BASOPHIL: 0%
  EOSINOPHIL: 0%
  ERYTHROCYTE COUNT: 5.6 x10E6/uL
  HEMATOCRIT: 34.17%
  HEMOGLOBIN: 13.47 G/DL
  LEUKOCYTE COUNT: 9.43 x10E3/uL
  LYMPHOCYTE: 86.67%
  MEAN CORPUSCULAR HEMOGLOBIN: 24.07 pg
  MEAN CORPUSCULAR VOLUME: 61.1 fL
  MONOCYTE: 2%
  NEUTROPHIL: 11.33%
  NUCLEATED RED BLOOD CELLS: 0 /100WBC
  PLATELET COUNT: 903 x10E3/uL
  ALANINE AMINOTRANSFERASE: 74 u/L
  ALBUMIN: 4.17 G/DL
  ALKALINE PHOSPHATASE: 365.33 u/L
  ASPARTATE AMINOTRANSFERASE: 92.33 u/L
  BLOOD UREA NITROGEN: 11.33 mg/dL
  CARBON DIOXIDE: 29.33 mmol/L
  CHLORIDE: 103.67 MEQ/L
  CHOLESTEROL: 75 mg/dL
  CREATINE PHOSPHOKINASE: 400.67 u/L
  CREATININE: 0.26 mg/dL
  GLUCOSE: 155 mg/dL
  LACTATE DEHYDROGENASE: 99.67 u/L
  LIPASE: 11.67 u/L
  PHOSPHORUS: 11.1 mg/dL
  SODIUM: 144.93 MEQ/L
  TOTAL BILIRUBIN: 0.2 mg/dL
  TOTAL PROTEIN: 5.93 G/DL
  URIC ACID: 0.8 mg/dL
